Reference: patent publication US8288394B2, “1-(1H-1,2,4-triazol-1-yl)butan-2-ol derivative for pharmaceutical use, and the use of a 1-(1H-1,2,4-triazol-1-yl)butan-2-ol derivative with substantially undefined crystal shape for preparing said 1-(1H-1,2,4-triazol-1-yl)butan-2-ol derivative” (Medichem, S.A., priority 2009, dated 2012)

Legend:
Type in all cases: physicochemical
[1] = Particle size distribution, laser diffraction (Malvern Mastersizer S, wet); details: for Particle Size Distribution D10 / Particle Size Distribution D50 / Particle Size Distribution D90: by volume, mean of six; for D[3,2] (Sauter diameter, DMVS): mean diameter by surface area to volume; for Particle Size Distribution D[4,3]: mean diameter by volume
Description: The particle size parameters measured in the present invention have been obtained by means of laser light diffraction technique, and specifically by means of a Malvern Mastersizer S particle size analyzer having characteristics as set out below. Namely, the laser source used was a 2 milliwatt Helium/neon laser (633 nm wavelength); the detection system was a Fourier Transform lens system; the sample was run using a 2.40 mm lens; the sample unit was a sample unit for wet measurement, and particularly was a MS1-Small volume Sample Dispersion Unit stirred cell. The wet dispersion was prepared by using deionized water as a dispersant, and the dispersion was controlled by stirring the unit cell. […] The characterization parameters (volume distributions) were measured for at least six times for each sample, and the result is a mean of said measured values for each sample.
The sample was run using the 2.40 mm lens. The sample unit was a MS1-Small Volume Sample Dispersion Unit stirred cell. The dispersant was deionized water. The sample particle size distribution was assumed to follow a normal distribution.
Analysis model: polydisperse. Setup presentation: 3_WATERF. Particle R.I.=(1.6800, 0.01). Dispersant R.I.=1.33.
This sample was sonicated for 2 minutes and delivered dropwise to the previously background and corrected measuring cell filled with dispersant (deionized water) until the obscuration reached the desired level. Volume distributions were obtained for at least six measures. For characterization, the values of D10, D50 and D90 (by volume), D[4,3] (mean diameter by volume) and D[3,2] (mean diameter by surface area to volume, or Sauter diameter) were specifically listed, each one being the mean of the six values available for each characterization parameter.
The notation DX [also written as D(v, 0.X)] means that X % of the particles have a diameter less than a specified diameter D. Thus a D90 [or D(v, 0.9)] of 100 μm means that 90% of the particles have a diameter less than 100 μm.

[2] = BET specific surface area (Micromeritics Gemini V, N2 at 77 K); details: N2 adsorption at 77 K
Description: The specific surface area values disclosed in the present invention have been obtained by means of a specific surface area analysis technique based on the BET (Brunauer, Emmett and Teller) theory, which is a well-accepted theory known in the art for the calculation of surface areas of solids by means of measuring their physical adsorption of gas molecules (See S. Brunauer, P. H. Emmett and E. Teller, J. Am. Chem. Soc., 1938, 60, 309). In particular, the specific surface area values measured in the present invention have been calculated from the BET surface area plot obtained by measuring the quantity of nitrogen gas molecules adsorbed by a weighted amount of solid at different relative pressures (P/P0) within the range 0.05-0.3, at 77 K. Precisely, the measurement of the adsorption of gas molecules was carried out by means of a Micromeritics™ Gemini V equipment having the characteristics as set out below. Namely, the gas used for adsorption measure was nitrogen gas. […] The sample for analysis was degassed (at 30° C. for 10 minutes and at 80° C. for one hour). The determination of the adsorption of nitrogen was measured at 77 K and for twelve relative pressures sufficiently dispersed within in the range of 0.05 to 0.3. (i.e. twelve absolute pressures in the range of 38.425 mmHg to 230.000 mmHg relative to a saturated pressure of 764,480 mmHg).
The sample for analysis was degassed at 30° C. for 10 minutes and at 80° C. for one hour.

[3] = Particle density by pycnometry; details: pycnometry at 25° C., n-heptane, mean of three
Description: The particle density experimental values were obtained by means of a pycnometer, specifically a 50 mL glass pycnometer. The measurements were carried out under technical characteristics as set out below. Namely, the determinations were done at 25° C.; the liquid of reference was n-heptane; the measurements were carried out three times, and the result is the mean of said measured values.

[4] = Sphericity factor calculated from density, Sauter diameter and specific surface area
Description: Flowability affects the ease with which the material is handled during processing into a pharmaceutical product. When the flowability is poor, problems occur with handling and processing during formulation. It is known that the shape of a particle affects its handling and flow properties. However, quantification of particle shape is extremely difficult for irregular and/or micronized particles. One of the most common ways of expressing the degree of irregularity of the particles is by means of the sphericity factor (ΨW), which is generally defined as the ratio between the surface area of a sphere having the same volume as the particle and the surface area of the particle:
[formula] where dv and ds are the equivalent volume and surface diameter, respectively (Part. Part. Syst. Charact. 1996, 13, 368-373).
Because sphericity factors are not calculated for each particle but for an assembly of particles, they have to be based on an average size. Thus, the sphericity factor will then be given by the following equation:
[formula] where SW is the powder specific surface area, ρ is the particle density and DMVS is the surface area mean diameter, also referred to as the mean volume-surface diameter, the Sauter diameter or D[3,2]. The Sauter diameter is defined as the diameter of a sphere that has the same volume/surface area ratio as the particle of interest.
A sphericity factor of 1.0 describes a perfect sphere with the greatest ease of flow (Encapsulated and powdered foods, CRC Press 2005). […] In this regard, sphericity factor values below 0.2 are usually found for low-flowability solids in form of platelets or needles. Therefore, a sphericity factor greater than 0.2 generally indicates an acceptable flowing material.

[5] = calculated using the measured particle density value
[6] = calculated using the reported crystal density value
[7] = listed as prior art micronized voriconazole

## C[C@@H](c1ncncc1F)[C@](O)(Cn1cncn1)c1ccc(F)cc1F [Example 3, voriconazole]
[1]
  Particle Size Distribution D10: 6.0 μm
  Particle Size Distribution D50: 21.7 μm
  Particle Size Distribution D90: 56.2 μm
  D[3,2] (Sauter diameter, DMVS): 12.2 μm
  Particle Size Distribution D[4,3]: 27.3 μm
[2]
  Specific Surface Area (BET), Sw: 1.0997 m^2/g
[3]
  Density (experimental particle density ρ): 1.33 g/mL
[4]; [5]
  sphericity factor Ψw: 0.34
[4]; [6]
  sphericity factor Ψw: 0.31

## C[C@@H](c1ncncc1F)[C@](O)(Cn1cncn1)c1ccc(F)cc1F [Example 8, voriconazole]
[1]
  Particle Size Distribution D10: 2.5 μm
  Particle Size Distribution D50: 7.3 μm
  Particle Size Distribution D90: 29.9 μm
  D[3,2] (Sauter diameter, DMVS): 5.2 μm
  Particle Size Distribution D[4,3]: 14.2 μm
[2]
  Specific Surface Area (BET), Sw: 1.5910 m^2/g
[4]; [6]
  sphericity factor Ψw: 0.50

## C[C@@H](c1ncncc1F)[C@](O)(Cn1cncn1)c1ccc(F)cc1F [Comparative Example 2, voriconazole, reference compound]
[1]
  Particle Size Distribution D50: 15.2 μm
  D[3,2] (Sauter diameter, DMVS): 8.3 μm
  Particle Size Distribution D[4,3]: 28.7 μm
[1]; [7]
  D[3,2] (Sauter diameter, DMVS): about 8.3 μm
[3]
  Density (experimental particle density ρ): 1.40 g/mL
[3]; [7]
  Density (experimental particle density ρ): about 1.400 g/cm^3

## C[C@@H](c1ncncc1F)[C@](O)(Cn1cncn1)c1ccc(F)cc1F [Example 6, voriconazole]
[1]
  Particle Size Distribution D10: 8.6 μm
  Particle Size Distribution D50: 33.4 μm
  Particle Size Distribution D90: 92.3 μm
  D[3,2] (Sauter diameter, DMVS): 17.2 μm
  Particle Size Distribution D[4,3]: 43.3 μm
[2]
  Specific Surface Area (BET), Sw: 0.9769 m^2/g
[3]
  Density (experimental particle density ρ): 1.40 g/mL
[4]; [5]
  sphericity factor Ψw: 0.25
[4]; [6]
  sphericity factor Ψw: 0.23

## C[C@@H](c1ncncc1F)[C@](O)(Cn1cncn1)c1ccc(F)cc1F [Example 2, voriconazole]
[1]
  Particle Size Distribution D10: 7.4 μm
  Particle Size Distribution D50: 29.7 μm
  Particle Size Distribution D90: 102.8 μm
  D[3,2] (Sauter diameter, DMVS): 15.4 μm
  Particle Size Distribution D[4,3]: 44.5 μm
[2]
  Specific Surface Area (BET), Sw: 0.9319 m^2/g
[3]
  Density (experimental particle density ρ): 1.35 g/mL
[4]; [5]
  sphericity factor Ψw: 0.31
[4]; [6]
  sphericity factor Ψw: 0.29

## C[C@@H](c1ncncc1F)[C@](O)(Cn1cncn1)c1ccc(F)cc1F [Example 4, voriconazole]
[1]
  Particle Size Distribution D10: 6.0 μm
  Particle Size Distribution D50: 22.4 μm
  Particle Size Distribution D90: 64.0 μm
  D[3,2] (Sauter diameter, DMVS): 12.3 μm
  Particle Size Distribution D[4,3]: 30.3 μm
[2]
  Specific Surface Area (BET), Sw: 1.0992 m^2/g
[3]
  Density (experimental particle density ρ): 1.32 g/mL
[4]; [5]
  sphericity factor Ψw: 0.34
[4]; [6]
  sphericity factor Ψw: 0.31

## C[C@@H](c1ncncc1F)[C@](O)(Cn1cncn1)c1ccc(F)cc1F [Example 5, voriconazole]
[1]
  Particle Size Distribution D10: 7.6 μm
  Particle Size Distribution D50: 32.3 μm
  Particle Size Distribution D90: 92.7 μm
  D[3,2] (Sauter diameter, DMVS): 15.8 μm
  Particle Size Distribution D[4,3]: 42.8 μm
[2]
  Specific Surface Area (BET), Sw: 1.1451 m^2/g
[3]
  Density (experimental particle density ρ): 1.37 g/mL
[4]; [5]
  sphericity factor Ψw: 0.24
[4]; [6]
  sphericity factor Ψw: 0.23

## C[C@@H](c1ncncc1F)[C@](O)(Cn1cncn1)c1ccc(F)cc1F [Example 7, voriconazole]
[1]
  Particle Size Distribution D10: 7.5 μm
  Particle Size Distribution D50: 25.3 μm
  Particle Size Distribution D90: 57.4 μm
  D[3,2] (Sauter diameter, DMVS): 14.3 μm
  Particle Size Distribution D[4,3]: 24.9 μm
[2]
  Specific Surface Area (BET), Sw: 1.1032 m^2/g
[4]; [6]
  sphericity factor Ψw: 0.26
